Results from patent US11897862B2 (Gilead Sciences, Inc., priority 2022, dated 2024).
Like-named read-outs stand apart in the source and are kept apart here.

Columns and labels:
Assay type in all cases: cell-based
IKZF1 = molecular target: T1, IKZF1 (Homo sapiens, UniProt Q13422+Q96SW2); test: HEK293 HiBiT in vitro degradation of IKZF1; details: for Dmax: HEK293, HEK293 HiBiT, maximum degradation at the highest concentration tested; for DC50: HEK293 HiBiT, 18-24 hr incubation, normalized to DMSO control, read-out: IKZF1 EC50
T1 construct: expressed in transfected cells
In short: (§1)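 Dox-inducible ([…] final, overnight) HEK293 Flp-In T-REx, single-copy target-HiBiT C-terminal fusion; compound serial dilution, 18-24 h, 37 °C; lytic Nano-Glo luminescence; EC50, Dmax.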

IKZF2 [1] = molecular target: T2, IKZF2 (Homo sapiens, UniProt Q96SW2+Q9UKS7); test: HEK293 HiBiT in vitro degradation of IKZF2; set-up: expressed in transfected cells; details: for Dmax: HEK293, HEK293 HiBiT; for DC50: 18-24 hr incubation, normalized to DMSO control, read-out: IKZF2 EC50
In short: as §1
Target sequence in this assay (Q9UKS7 1-500 isoform Q9UKS7-2): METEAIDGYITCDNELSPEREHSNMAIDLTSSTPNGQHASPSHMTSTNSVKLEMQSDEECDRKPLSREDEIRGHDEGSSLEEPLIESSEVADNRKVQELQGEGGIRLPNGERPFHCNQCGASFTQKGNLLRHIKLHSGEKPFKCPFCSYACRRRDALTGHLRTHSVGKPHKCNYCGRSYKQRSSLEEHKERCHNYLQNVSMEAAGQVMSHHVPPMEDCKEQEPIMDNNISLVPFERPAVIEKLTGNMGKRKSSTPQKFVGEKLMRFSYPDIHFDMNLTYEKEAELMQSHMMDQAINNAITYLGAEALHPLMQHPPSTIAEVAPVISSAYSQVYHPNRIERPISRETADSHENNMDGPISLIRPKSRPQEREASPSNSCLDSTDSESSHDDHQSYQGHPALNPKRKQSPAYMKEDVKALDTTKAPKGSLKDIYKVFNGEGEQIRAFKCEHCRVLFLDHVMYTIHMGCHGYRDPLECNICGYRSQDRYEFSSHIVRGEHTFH
Target sequence in this assay (Q96SW2 whole entry): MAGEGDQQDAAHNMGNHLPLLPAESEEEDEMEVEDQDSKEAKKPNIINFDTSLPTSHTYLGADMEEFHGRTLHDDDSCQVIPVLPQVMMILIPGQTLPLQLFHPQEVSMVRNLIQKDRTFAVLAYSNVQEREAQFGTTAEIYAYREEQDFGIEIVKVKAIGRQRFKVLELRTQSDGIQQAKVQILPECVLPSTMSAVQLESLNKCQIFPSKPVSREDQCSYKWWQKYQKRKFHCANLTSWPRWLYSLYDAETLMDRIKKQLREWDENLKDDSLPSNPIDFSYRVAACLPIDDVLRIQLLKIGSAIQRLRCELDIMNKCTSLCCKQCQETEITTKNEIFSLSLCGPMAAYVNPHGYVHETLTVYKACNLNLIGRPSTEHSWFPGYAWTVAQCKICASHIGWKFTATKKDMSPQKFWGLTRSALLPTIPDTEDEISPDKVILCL
Target sequence in this assay (Q16531 whole entry partner): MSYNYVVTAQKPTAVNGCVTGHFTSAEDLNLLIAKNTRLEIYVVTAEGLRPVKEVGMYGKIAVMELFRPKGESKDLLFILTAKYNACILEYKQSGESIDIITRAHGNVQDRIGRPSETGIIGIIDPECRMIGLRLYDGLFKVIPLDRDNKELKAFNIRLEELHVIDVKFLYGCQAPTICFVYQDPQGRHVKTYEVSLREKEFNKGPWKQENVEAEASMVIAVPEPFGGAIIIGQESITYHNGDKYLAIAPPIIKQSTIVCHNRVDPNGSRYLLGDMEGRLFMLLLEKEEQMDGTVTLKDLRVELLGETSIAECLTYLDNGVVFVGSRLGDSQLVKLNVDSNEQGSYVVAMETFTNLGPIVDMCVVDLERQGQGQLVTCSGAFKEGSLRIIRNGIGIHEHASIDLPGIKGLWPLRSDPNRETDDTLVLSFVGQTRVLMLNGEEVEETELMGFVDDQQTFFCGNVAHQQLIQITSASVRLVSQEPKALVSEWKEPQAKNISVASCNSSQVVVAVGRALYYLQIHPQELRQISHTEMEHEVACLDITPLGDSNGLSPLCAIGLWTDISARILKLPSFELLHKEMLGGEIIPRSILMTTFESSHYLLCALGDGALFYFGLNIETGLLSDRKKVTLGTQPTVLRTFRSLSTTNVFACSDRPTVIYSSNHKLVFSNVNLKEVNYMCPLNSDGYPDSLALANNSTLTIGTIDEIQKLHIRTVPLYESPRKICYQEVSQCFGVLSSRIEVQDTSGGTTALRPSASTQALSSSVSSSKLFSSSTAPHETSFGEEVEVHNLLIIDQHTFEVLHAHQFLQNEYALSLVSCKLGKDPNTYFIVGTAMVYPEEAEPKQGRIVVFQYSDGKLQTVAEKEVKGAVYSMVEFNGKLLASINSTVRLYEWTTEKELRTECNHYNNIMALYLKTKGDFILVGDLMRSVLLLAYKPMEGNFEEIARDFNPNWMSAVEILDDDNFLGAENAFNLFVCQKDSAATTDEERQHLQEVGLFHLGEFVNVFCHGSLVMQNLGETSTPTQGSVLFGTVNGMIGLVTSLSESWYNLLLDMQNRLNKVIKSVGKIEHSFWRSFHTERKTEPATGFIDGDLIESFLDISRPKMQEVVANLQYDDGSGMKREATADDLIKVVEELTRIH

SALL4 = molecular target: T3, SALL4 (Homo sapiens, UniProt Q96SW2+Q9UJQ4); test: HEK293 HiBiT in vitro degradation of SALL4; details: 18-24 hr incubation, normalized to DMSO control, read-out: SALL4 EC50
T3 construct: expressed in transfected cells
Experimental: In vitro degradation of IKZF1, IKZF2, and SALL4 was measured using HiBiT protein tagging and detection technology (Promega).
HiBit technology was used to develop the quantitative assays to measure the cellular IKZFs level by tagging an 11 amino acid HiBit peptides […] to the protein of interest. Reporter plasmids were generated by fusing a linker sequence ([…]) followed by the HiBit tag at the C-terminus of IKZF1, IKZF2, and SALL4. The fusion fragments were subsequently cloned into pcDNA5 pcDNA™5/FRT/TO plasmids (Thermo Fisher, cat #V652020) downstream of the tetracycline operator. The resulting plasmids were co-transfected with pOG44 Flp-Recombinase Expression Vector (Thermo Fisher, cat #V600520) into Flp-In™ T-REx HEK293 line (Thermo Fisher, cat #R78077) and a stable cell pool was selected by adding 100 µg/ml of Hygromycin (Thermo Fisher, cat #10687010). The reporter cell enabled Tet-On inducible reporter expression from a single copy of the integrated gene.
On Day 1, Cells were grown to ˜80% confluency in tissue culture medium (DMEM Glutamax (Gibco10569), 10% Tet free FBS (Takara 631106), and PenStrep Glutamin (Gibco 10378)) in tissue culture flasks. Doxycycline was then added to a final concentration of […] to induce reporter expression at 37° C. overnight.
On Day 2, 125 nL of serially-diluted solution of testing compounds were dispensed into 384-well white solid assay plates via ECHO acoustic liquid handler. Cells were lifted by 0.25% Trypsin (Gibco 25200) then pelleted by centrifugation (Beckman Avanti J-E) at 500×g for 5 min. Cell pellets were resuspended in TC medium at the concentration of 3e5/mL and 25 μL of cell suspension were added into each well of compound-spotted plates. The plates were returned to a 37° C. incubator overnight (18-24 hr).
On Day 3, assay plates were removed from the tissue culture incubator and 25 μL of Nano-Glo lytic detection system (Promega, cat #N3030) was added to each well. Plates were incubated at r.t. for 3 min with shaking, and luminescence was read using an Envision reader (Perkin Elmer).
To assess the IKZF1, IKZF2, and SALL4 degrader potential of exemplified compounds of this disclosure and certain Reference Compounds EC50 and Dmax values were determined for the compounds of Examples 1 to 383 and Reference Compounds A-1, B-1, B-2, B-3, B-4, and C-1 in the HiBiT assays. Asterisks (*) indicate examples for which the data shown represents an average of n≥3.

IKZF2 [2] = molecular target: T2, IKZF2; test: HEK293 IKZF2 degradation kinetics (HiBiT, timepoints 1-24 h); set-up: expressed in transfected cells; details: HEK293, IKZF2; timepoints 1, 2, 3, 4.5 and 24 hour; read-out: Maximum degradation rate Kinact (converted)
Experimental: The assay technology and principles for evaluating IKZF2 degradation kinetics in HEK293 cells was identical to the HEK293 degradation assay as described above. Additional details are briefly described below.
On Day 1, Cells were grown and induced the same as described above. On Days 2 and 3, compounds for testing were dispensed via ECHO and cells were lifted and plated into compound-spotted assay plates as above. Plates were returned to the 37° C. incubator until addition of Nano-Glo lytic reagent at 1, 2, 3, 4.5, and 24 hour timepoints. At these timepoints, plates were read on Envision reader as above.
All raw data was normalized to DMSO control (final concentration: 0.5%) wells as POC and plotted out as a function of time to generate the degradation rate constant (K) value. The maximum degradation rate (Kinact) was determined by plotting the K value as a function of concentration for each compound tested. Kinact values are shown in Table 25 and the degradation rate plots as well as timecourse of degradation are shown for select compounds in FIG. 1A, FIG. 1B, FIG. 2A and FIG. 2B.
Target sequence in this assay (Q9UKS7 1-500 isoform Q9UKS7-2): as the sequence (Q9UKS7 1-500 isoform Q9UKS7-2) above
Target sequence in this assay (Q96SW2 whole entry): as the sequence (Q96SW2 whole entry) above
Target sequence in this assay (Q16531 whole entry partner): as the sequence (Q16531 whole entry partner) above

IKZF2 [3] = molecular target: T2, IKZF2; test: Human whole blood IKZF2 degradation (flow cytometry, CD4/CD25/Foxp3+ Treg cells); set-up: endogenous in cells; details: 24 hrs incubation, IKZF2 MFI in CD4/CD25/Foxp3+ Treg cells, flow cytometry; for DC50: read-out: IKZF2 EC50
In short: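 Fresh healthy-donor human whole blood stimulated with CD3/CD28 activator and serially diluted compound for 24 hrs at 37° C. IKZF2 MFI in CD4/CD25/Foxp3+ Tregs (IKZF1 MFI in CD4+ T cells) measured by flow cytometry after RBC lysis, fixation, permeabilization. EC50 and Dmax versus DMSO wells.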
Target sequence in this assay (Q9UKS7 whole entry): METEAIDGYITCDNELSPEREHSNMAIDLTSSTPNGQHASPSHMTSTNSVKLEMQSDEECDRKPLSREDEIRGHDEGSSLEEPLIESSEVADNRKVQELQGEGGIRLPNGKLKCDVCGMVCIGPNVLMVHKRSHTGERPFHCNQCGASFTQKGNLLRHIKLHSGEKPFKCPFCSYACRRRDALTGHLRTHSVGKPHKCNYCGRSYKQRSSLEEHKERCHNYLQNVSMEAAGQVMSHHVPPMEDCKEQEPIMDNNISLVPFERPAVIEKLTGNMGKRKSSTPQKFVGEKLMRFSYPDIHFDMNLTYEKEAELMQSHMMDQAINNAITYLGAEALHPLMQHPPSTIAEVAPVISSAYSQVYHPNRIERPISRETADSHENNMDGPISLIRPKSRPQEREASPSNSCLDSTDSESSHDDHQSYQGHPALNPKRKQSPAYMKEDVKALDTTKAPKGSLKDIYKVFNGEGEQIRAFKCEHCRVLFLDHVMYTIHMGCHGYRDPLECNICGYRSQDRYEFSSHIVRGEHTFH
Target sequence in this assay (Q96SW2 whole entry): as the sequence (Q96SW2 whole entry) above
Target sequence in this assay (Q16531 whole entry partner): as the sequence (Q16531 whole entry partner) above

IKZF2 [4] = molecular target: T2, IKZF2; test: Jurkat IKZF2 degradation (flow cytometry); set-up: endogenous in cells; details: Jurkat cells, overnight incubation; for DC50: flow cytometry, normalized to DMSO control, read-out: IKZF2 Degradation EC50; for Dmax: maximum degradation at the highest concentration tested
Experimental: (§2) Jurkat cell line (ATCC, Clone E6-1), highly expresses IKZF2 and lends it an appropriate system to screen degradation along with a functional readout. Jurkat cells were grown to 80% confluency in TC medium (RPMI containing glutamax, 10% FBS, 1% NEAA, and 1% Pen/Strep Glutamin in tissue culture flasks.
(§3) The cells were spun down at 400 g for 5 mins and counted. 100 K cells per well were added to a 96-well plate. The compounds were introduced starting at 10 μM and dilutions were made 1:10 for each compound. 100 μL of compound was added to each well for a 12-point titration. The cells were incubated at 37° C. with 5% CO2 overnight.
Cells were stained with appropriate surface and intracellular antibodies and acquired by flow cytometry and analysed for degradation. […]
Target sequence in this assay (Q9UKS7 whole entry): as the sequence (Q9UKS7 whole entry) above
Target sequence in this assay (Q96SW2 whole entry): as the sequence (Q96SW2 whole entry) above
Target sequence in this assay (Q16531 whole entry partner): as the sequence (Q16531 whole entry partner) above

[5] = system: IL-2 production in Jurkat cells; test: Jurkat IL-2 functional assay (ELISA of supernatants); details: Homo sapiens; for maximal fold induction: Jurkat, top of the curve fit; for EC50: overnight incubation
Experimental: as §2, §3
The following day, supernatants were collected for a functional readout using ELISA. The supernatants were diluted 1:2 and added to appropriate Human IL-2 plates for IL-2 functional readout.
The top of the curve fit for each compound is reported as the IL-2 ‘fold increase over DMSO control.’

[6] = maximum degradation at the highest concentration tested
[7] = ELISA of supernatants, read-out: IL-2 Production Fold increase over DMSO control
[8] = read-out: increase in IL-2 production relative to DMSO control

T3 sequence (Q9UJQ4 whole entry): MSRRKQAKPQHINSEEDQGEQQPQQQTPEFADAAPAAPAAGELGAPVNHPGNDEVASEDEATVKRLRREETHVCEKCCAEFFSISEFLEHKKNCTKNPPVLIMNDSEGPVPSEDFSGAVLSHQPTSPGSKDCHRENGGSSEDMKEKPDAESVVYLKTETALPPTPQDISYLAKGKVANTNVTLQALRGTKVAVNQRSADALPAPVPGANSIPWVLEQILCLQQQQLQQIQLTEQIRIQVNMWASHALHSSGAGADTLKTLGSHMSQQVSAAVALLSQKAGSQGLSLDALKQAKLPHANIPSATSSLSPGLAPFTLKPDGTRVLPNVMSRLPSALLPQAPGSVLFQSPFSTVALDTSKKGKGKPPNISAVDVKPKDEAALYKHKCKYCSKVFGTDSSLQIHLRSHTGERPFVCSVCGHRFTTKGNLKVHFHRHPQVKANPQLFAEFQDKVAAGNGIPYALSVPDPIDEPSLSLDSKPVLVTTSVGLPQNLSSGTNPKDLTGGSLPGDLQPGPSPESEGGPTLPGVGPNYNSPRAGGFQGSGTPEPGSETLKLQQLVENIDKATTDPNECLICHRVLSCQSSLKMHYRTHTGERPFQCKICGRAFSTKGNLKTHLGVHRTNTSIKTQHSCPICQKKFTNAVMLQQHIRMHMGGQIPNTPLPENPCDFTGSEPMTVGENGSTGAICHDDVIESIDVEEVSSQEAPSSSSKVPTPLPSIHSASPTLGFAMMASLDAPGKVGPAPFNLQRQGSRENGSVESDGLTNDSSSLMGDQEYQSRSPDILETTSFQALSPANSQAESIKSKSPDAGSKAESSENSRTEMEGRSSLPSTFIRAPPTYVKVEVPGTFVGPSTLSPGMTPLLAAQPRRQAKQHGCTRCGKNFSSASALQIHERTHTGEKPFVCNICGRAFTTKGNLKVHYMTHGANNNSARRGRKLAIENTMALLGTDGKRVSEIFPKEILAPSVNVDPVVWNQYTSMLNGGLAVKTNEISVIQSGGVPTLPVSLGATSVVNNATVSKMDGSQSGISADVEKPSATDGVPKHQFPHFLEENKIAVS
T3 sequence (Q96SW2 whole entry): as the sequence (Q96SW2 whole entry) above
T3 sequence (Q16531 whole entry partner): as the sequence (Q16531 whole entry partner) above
T1 sequence (Q13422 whole entry): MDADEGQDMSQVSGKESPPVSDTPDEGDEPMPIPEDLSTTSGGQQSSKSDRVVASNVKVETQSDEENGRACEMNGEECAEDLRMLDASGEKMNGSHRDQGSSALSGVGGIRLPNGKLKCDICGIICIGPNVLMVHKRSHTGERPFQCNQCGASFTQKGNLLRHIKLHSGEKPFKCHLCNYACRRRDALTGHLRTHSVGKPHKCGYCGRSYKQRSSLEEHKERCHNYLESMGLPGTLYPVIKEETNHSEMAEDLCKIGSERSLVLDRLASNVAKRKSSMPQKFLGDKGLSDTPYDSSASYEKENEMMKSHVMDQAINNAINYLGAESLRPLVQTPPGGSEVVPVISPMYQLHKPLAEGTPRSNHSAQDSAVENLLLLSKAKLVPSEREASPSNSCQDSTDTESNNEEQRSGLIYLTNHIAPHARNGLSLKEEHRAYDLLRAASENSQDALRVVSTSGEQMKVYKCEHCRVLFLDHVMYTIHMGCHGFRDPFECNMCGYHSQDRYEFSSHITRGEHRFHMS
T1 sequence (Q96SW2 whole entry): as the sequence (Q96SW2 whole entry) above
T1 sequence (Q16531 whole entry partner): as the sequence (Q16531 whole entry partner) above

Row | SMILES | Dmax (IKZF1) | DC50 (IKZF1) | Dmax (IKZF2 [1]; [6]) | DC50 (IKZF2 [1]; HEK293 HiBiT) | DC50 (SALL4) | kinact (IKZF2 [2]) | Dmax (IKZF2 [3]) | DC50 (IKZF2 [3]) | IKZF2 Dmax (IKZF2 [1]; HEK293 HiBiT, maximum degradation at the highest concentration tested) | DC50 (IKZF2 [4]) | Dmax (IKZF2 [4]) | maximal fold induction [5, 7] | maximal fold induction [5, 8] | EC50 ([5]; ELISA of supernatants)
1 | O=C1CC[C@@H](N2Cc3cc(C[C@H]4CCCC[C@@H]4NC4CCC(F)(F)CC4)ccc3C2=O)C(=O)N1 (single isomer, unassigned) [Example 329] | 53% | 50 nM | 98% | 2 nM | > 10000 nM | 0.000158 s⁻¹ | 97% | 4 nM |  |  |  |  |  | 
2 | CC1CC[C@H](NC2CCC(F)(F)CC2)[C@@H](Cc2ccc3c(c2)CN(C2CCC(=O)NC2=O)C3=O)C1 (single isomer, unassigned) [Example 325] |  | > 1000 nM |  | 5 nM | > 10000 nM | 0.000108 s⁻¹ |  |  | 95% |  |  |  |  | 
3 | O=C1CCC(N2Cc3c(ccc(C[C@H]4OCCC[C@@H]4NC4CCC(F)(F)CC4)c3F)C2=O)C(=O)N1 (stereo partly drawn) [Example 94, 3-(5-(((2R,3S)-3-((4,4-difluorocyclohexyl)amino)tetrahydro-2H-pyran-2-yl)methyl)-4-fluoro-1-oxoisoindolin-2-yl)piperidine-2,6-dione] |  | > 10000 nM | 96% | 10 nM |  |  | 90% | 7 nM |  | 2 nM | 88% | 2.1 | ≥ 1.9 | 2.3 nM
4 | CC(N[C@H]1CCCO[C@@H]1Cc1ccc2c(c1F)CN(C1CCC(=O)NC1=O)C2=O)C1CCOCC1 (single isomer, unassigned) [Example 291] |  | > 1000 nM | 94% | 10 nM | > 10000 nM | 8.61e-05 s⁻¹ | 96% | 5 nM |  |  |  |  |  | 
5 | O=C1CCC(N2Cc3c(ccc(C[C@H]4OCCC[C@@H]4N[C@H]4CC[C@H](F)CC4)c3F)C2=O)C(=O)N1 (single isomer, unassigned) [Example 289] | 31% | 632 nM | 97% | 5 nM | > 10000 nM | 0.000131 s⁻¹ | 90% | 5 nM |  |  |  |  |  | 
6 | CCN[C@H]1CCCC[C@@H]1Oc1ccc2c(c1)CN(C1CCC(=O)NC1=O)C2=O (stereo partly shown) [Example B-2] |  |  | 93% |  |  |  |  |  |  |  | 83% | 1.8 |  | 18 nM
7 | O=C1CCC(N2Cc3c(ccc(C[C@H]4OCCC[C@@H]4NC4CCC(C(F)(F)F)CC4)c3F)C2=O)C(=O)N1 (single isomer, unassigned) [Example 257] | 34% | 69 nM | 99% | 3 nM |  | 0.000133 s⁻¹ | 93% | 5 nM |  |  |  |  |  | 
8 | CCN[C@H]1CCCC[C@@H]1Cc1ccc2c(c1)CN(C1CCC(=O)NC1=O)C2=O (stereo partly drawn) [Example 35, 3-(5-(((1R,2S)-2-(ethylamino)cyclohexyl)methyl)-1-oxoisoindolin-2-yl)piperidine-2,6-dione] | 31% | 261 nM | 94% | 29 nM |  |  |  |  |  | 3.9 nM | 83% | 1.9 | ≥ 1.9 | 141 nM
9 | O=C1CCC(N2Cc3c(ccc(C[C@H]4CCCC[C@@H]4NC4CCCC4)c3F)C2=O)C(=O)N1 (stereo partly drawn) [Example 87, 3-(5-(((1R,2S)-2-(cyclopentylamino)cyclohexyl)methyl)-4-fluoro-1-oxoisoindolin-2-yl)piperidine-2,6-dione] | 39% | 62 nM | 98% | 2 nM |  | 0.000139 s⁻¹ | 95% | 3 nM |  |  |  |  |  | 
10 | O=C1CCC(N2Cc3cc(O[C@H]4CCCC[C@@H]4NC4CCC(F)(F)CC4)ccc3C2=O)C(=O)N1 (stereo partly shown) [Example B-4] |  |  | 98% |  |  | 0.000144 s⁻¹ | 97% |  |  |  | 94% | 1.8 |  | 7.8 nM
11 | O=C1CCC(N2Cc3cc(C[C@H]4CCCC[C@@H]4NC4CCCCC4)ccc3C2=O)C(=O)N1 (stereo partly drawn) [Example 53, 3-(5-(((1R,2S)-2-(cyclohexylamino)cyclohexyl)methyl)-1-oxoisoindolin-2-yl)piperidine-2,6-dione] |  | > 1000 nM | 96% | 3 nM |  | 0.000147 s⁻¹ | 96% | 4 nM |  |  |  |  |  | 
12 | O=C1CCC(N2Cc3c(ccc(C[C@H]4OCCC[C@@H]4NC4CCCCC4)c3F)C2=O)C(=O)N1 (stereo partly shown) [Example 181] |  | > 1000 nM | 96% | 6 nM |  | 0.000106 s⁻¹ | 99% | 8 nM |  |  |  |  |  | 
13 | O=C1CCC(N2Cc3c(ccc(C[C@H]4CCCC[C@@H]4NC4CCC(F)(F)CC4)c3F)C2=O)C(=O)N1 (stereo partly drawn) [Example 84, 3-(5-(((1R,2S)-2-((4,4-difluorocyclohexyl)amino)cyclohexyl)methyl)-4-fluoro-1-oxoisoindolin-2-yl)piperidine-2,6-dione] | 68% | 28 nM | 97% | 1 nM |  |  | 93% | 1 nM |  | 0.05 nM | 97% | 2.6 | ≥ 1.9 | 0.2 nM
